The values below come from publication PMC9134086, “Inhibition of Dipeptidyl Peptidase-4 by Flavonoids: Structure–Activity Relationship, Kinetics and Interaction Mechanism” (Frontiers in Nutrition, 2022).

In experiment [1] the target is T1, DPP-4 (human recombinant) (Homo sapiens, UniProt P27487).
T1 construct: purchased Sigma Aldrich D3446
Briefly: Inhibition kinetic analysis (V vs [DPP-4], Lineweaver-Burk, Dixon and Cornish-Bowden plots). It counts as biochemical.

In experiment [2] the target is T1, DPP-4 (human recombinant). Briefly: In vitro assay for DPP-4 inhibitory activity (fluorescence, Gly-Pro-AMC).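 Note: fluorescence of released AMC (excitation 360 nm, emission 460 nm) followed kinetically over 30 min at 37 °C in Tris-HCl pH 8.0.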 It counts as biochemical.
Experiment [3] deals with T1, DPP-4 (human recombinant). Kind of experiment: Fluorescence quenching experiments (Stern-Volmer, binding constant, thermodynamic parameters).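 For all read-outs here: intrinsic DPP-4 fluorescence emission scanned 290–500 nm, corrected for flavonoid background and inner-filter absorbance, compared without versus with flavonoid quencher.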 The note with it: for Kq (quenching rate constant): τ0 10^−8 s.
The test system of experiment [4] is DPP-4. On the set-up: method as in PMID 33063510. The note with it: different DPP-IV inhibitor screening assay kit; cited from earlier work.

Molecules are shown by their SMILES.

T1 sequence (P27487 whole entry): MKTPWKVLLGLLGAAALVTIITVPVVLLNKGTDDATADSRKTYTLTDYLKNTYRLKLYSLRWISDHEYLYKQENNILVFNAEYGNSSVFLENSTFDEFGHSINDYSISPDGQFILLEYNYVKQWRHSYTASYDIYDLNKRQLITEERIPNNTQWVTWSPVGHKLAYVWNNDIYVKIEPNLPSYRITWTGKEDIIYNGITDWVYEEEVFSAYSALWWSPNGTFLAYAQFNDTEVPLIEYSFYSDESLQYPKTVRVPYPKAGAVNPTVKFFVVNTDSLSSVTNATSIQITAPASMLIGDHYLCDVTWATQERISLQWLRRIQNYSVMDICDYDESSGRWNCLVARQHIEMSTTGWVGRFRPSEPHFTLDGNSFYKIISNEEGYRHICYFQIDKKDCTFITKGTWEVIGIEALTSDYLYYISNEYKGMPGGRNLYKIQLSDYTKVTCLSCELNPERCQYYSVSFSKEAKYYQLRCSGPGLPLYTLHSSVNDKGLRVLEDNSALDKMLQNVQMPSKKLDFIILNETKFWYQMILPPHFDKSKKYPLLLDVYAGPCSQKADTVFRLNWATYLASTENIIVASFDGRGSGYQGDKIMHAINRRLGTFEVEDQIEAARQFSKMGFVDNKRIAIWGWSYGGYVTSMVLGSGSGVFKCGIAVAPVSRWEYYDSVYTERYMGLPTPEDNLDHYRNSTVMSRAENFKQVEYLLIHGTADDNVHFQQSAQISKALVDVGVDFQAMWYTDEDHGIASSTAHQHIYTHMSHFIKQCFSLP

As to `OCC1OC(Oc2cc3c(O)cc(O)cc3[o+]c2-c2ccc(O)c(O)c2)C(O)C(O)C1O` (stereo not shown) [F2, Cyanidin 3-O-glucoside chloride], in experiment [1] (Cornish-Bowden equation), the “Kiu (uncompetitive inhibition constant)” value was 18.37 ± 0.24 10^−5 mol L^−1. Also, the Ki in experiment [1] (Dixon equation, read-out: Kic (competitive inhibition constant)) came to 74.3 ± 1.2 µM. In experiment [1] (Lineweaver-Burk, Dixon and Cornish-Bowden plots, Gly-Pro-AMC 50–200 μM, DPP-4 0.42 mU/mL), the Inhibition type result is listed as “Mixed”. Besides, the “reversibility of the inhibition” value in experiment [1] (plots of V vs [DPP-4] 0.21–0.84 mU/mL, 200 μM Gly-Pro-AMC) was “reversible”. Besides, the 1/Kiu in experiment [1] (reciprocal of uncompetitive inhibition constant) is reported as 0.57 ± 0.03 10^4 L mol^−1. The concentration for half-maximal inhibition (IC50) in experiment [2] (DPP-4 inhibition, fluorescence method) came to 81.1 ± 4.14 µM. The “% Inhibition at 200μM” value in experiment [2] (flavonoid 200 μM, mean ± SD, three independent experiments) is given as 68.05 ±0.15%. Also, in experiment [2] (flavonoid 200 μM, mean ± SD, three independent experiments, read-out: % Inhibition at 200μM), the inhibition at 200 µM was more than 50%. The “inhibitory percentage relative to cyanidin (F1)” value in experiment [2] (ratio of % inhibition at 200 μM, cyanidin 3-O-glucoside vs cyanidin) worked out at 3.62 times. Further, in experiment [3] (298 K), the “KSV (Stern-Volmer quenching constant)” value is recorded as 3.64 ± 0.04 ×10^4 L mol^−1, the “n (number of binding sites)” value is 1.05 ± 0.01, the “ΔG (Gibbs free-energy change)” value was -6.577 kcal/mol and the “Kq (quenching rate constant)” value is 3.64 ± 0.04 ×10^12 L mol^−1 s^−1. Moreover, in experiment [3] (310 K), the “KSV (Stern-Volmer quenching constant)” value is on record as 3.08 ± 0.06 ×10^4 L mol^−1, the “n (number of binding sites)” value came out at 1.04 ± 0.01 and the “Kq (quenching rate constant)” value was 3.08 ± 0.06 ×10^12 L mol^−1 s^−1. Further, in experiment [3] (from Kb at 298 and 310 K), the “ΔH (enthalpy change)” value was -1.971 kcal/mol and the “ΔS (entropy change)” value is listed as 64.68 J mol^−1K^−1. Besides, in experiment [4], the IC50 is 8.26 µM.
